The text below walks through data of US20180118801A1, “COMPOSITIONS AND METHODS FOR DIAGNOSING AND TREATING AUTOIMMUNE DISEASES” (THE REGENTS OF THE UNIVERSITY OF COLORADO, a body corporate, priority 2015, published 2018).

Common to all, as to test: T cell antigen assay, IFN-gamma ELISA response of T cell clone
Holding throughout (format): cell-based, NOD mouse
In general terms: An ELISA detects its analyte on a solid surface through an enzyme-linked reagent.

One experiment has as its system T cell clone BDC-9.3. The note with it: for T cell recognition/activation by HIP sequence (IFN-gamma response): BDC-9.3, synthetic HIP library screen (FIG. 2E); for IFN-gamma T cell response to peptides: BDC-9.3, exemplifying the IAPP-reactive clones, synthetic peptides, FIG. 4B. As to the method:
(§1) The antigenicity of biochemical fractions, peptides, or reaction mixtures was assessed through the IFN-y responses of T-cell clones. In 96-well microtiter plates, assay cultures contained 2×10^4 responder T cells, 2.5×10^4 NOD peritoneal exudate cells as antigen-presenting cells, and -cell antigen. ELISA (BD Biosciences) was used to determine IFN-gamma production by the responder T cells. Aliquots of cell extracts (β-Mem) were used as positive controls throughout the experiments. Test wells contained biochemical fractions, peptides, or reaction mixtures. Synthetic peptides (>95%) were obtained from CHI Scientific.
(§2) For the synthesis of a HIP peptide through chemical crosslinking of an N-terminally acetylated “left peptide” and an unmodified “right peptide”, a two-step crosslinking procedure was adopted. To ensure water solubility of peptides, “left peptides” (>85%, CHI-Scientific) were N-terminally extended and “right peptides” (>85%, CHI-Scientific) were C-terminally extended through the addition of two arginine residues separated by an alanine residue from the core amino acid sequences. A total of 10 μl “left peptide” (10 mM: SEQ ID NO: 177 Acetyl-RRAHLVEAL. SEQ ID NO: 178 Acetyl-RRALVEALY, SEQ ID NO: 179 Acetyl-RRAVEALYL, SEQ ID NO. 180 Acetyl-RRAGDLQTL, SEQ ID NO: 181 Acetyl-RRADLQTLA, SEQ ID NO: 182 Acetyl-RRALQTLAL, SEQ ID NO: 183 Acetyl-RRAQTLALE, or SEQ ID NO: 184 Acetyl-RRATLALEV) was added to 74.5 μl reaction buffer (20 mM MES, 150 mM NaCl) in a 1.5 ml eppendorf tube, followed by the addition of a carbodiimide, such as, for example, 1.5 μl freshly prepared 500 mM 1-Ethyl-3-[3-dimethylaminopropyl]carbodiimide hydrochloride (EDC) and 1.5 μl 1000 mM N-hydroxysuccinimide (NHS). After 15 min of incubation at room temperature, a reducing agent was added, for example, […] of DTT (1000 mM) were added to quench residual EDC. Following another 15 min of incubation at room temperature, […] of “right peptide” (10 mM: SEQ ID NO: 185 KCNTATARR, SEQ ID NO: 186 NAARDPARR, SEQ ID NO: 187 TPVRSGTARR, or SEQ ID NO: 188 WSRMDARR) were added. Reaction mixtures were incubated for 16 h at 37° C., prior to the direct addition of […] to the T cell assay plates (see for example U.S. Pat. No. 5,589,458). ELISA was used to measure IFN-gamma T cell responses to individual HIP reaction mixtures. For each T cell clone, the ELISA absorbance values to all peptides were averaged and the standard deviation was calculated. If the absorbance value toward an individual HIP was three times the standard deviation (3×sd) above the average signal, the response toward the peptide was classified as positive.

The next experiment concerns T cell clone BDC-6.9. The note with it: for T cell recognition/activation by HIP sequence (IFN-gamma response): BDC-6.9 (same TCR as BDC-9.3); for IFN-gamma T cell response to peptides: BDC-6.9, synthetic peptides. As to the method: as §1, §2
Experiment [1] deals with CD4 T cell clone BDC-10.1. The note with it: synthetic HIP library screen (FIG. 2C). On the procedure:
as §1, §2

The next experiment relates to CD4 T cell clone BDC-2.5. The conditions noted are these: for T cell recognition/activation by HIP sequence (IFN-gamma response): BDC-2.5, synthetic HIP library screen, positive if ELISA absorbance 3×sd above average (FIG. 2B); for IFN-gamma T cell response to peptides: BDC-2.5, illustrating the WE14-reactive clones, synthetic peptides, FIG. 4A. As to the method:
as §1, §2

Experiment [2] has as its system CD4 T cell clone BDC-9.46. The note with it: synthetic HIP library screen (FIG. 2D). On the procedure:
as §1, §2

Entries after “also recorded” stand apart in the source; their conditions may differ.

Regarding DLQTLALNAAR [Sequence 2], the “T cell recognition/activation by HIP sequence (IFN-gamma response)” value (from here on “T cell recognition/activation”) in the experiment on T cell clone BDC-9.3 and in the experiment with T cell clone BDC-6.9 was “recognized” in each case.

For DLQTLALWSRM [Sequence 1], the “T cell recognition/activation” value (in experiment [1]; in the experiment on CD4 T cell clone BDC-2.5; in experiment [2]) was “recognized” throughout.

In the case of “IAPP2-HIP: HIP spanning full-length Ins2 C-Peptide fragment ending in LQTLAL on the N-terminal side and the entire IAPP2 sequence on the C-terminal side (EVEDPQVAQLELGGGPGAGDLQTLALNAAGDPNRESLDFLLV)”, the “IFN-gamma T cell response to peptides” value with T cell clone BDC-9.3 and in the experiment with T cell clone BDC-6.9 was “low nanomolar concentrations” throughout.

Take “IAPP2: IAPP propeptide 2, naturally occurring cleavage product found in secretory granules of β-cells (NAAGDPNRESLDFLLV)”: the “IFN-gamma T cell response to peptides” value in the experiment with T cell clone BDC-9.3 is given as “Neither BDC-9.3 nor BDC-6.9 recognize; also recorded: not responsive”; in the experiment on T cell clone BDC-6.9, “Neither BDC-9.3 nor BDC-6.9 recognize”.

Turning to LQTLALNAARD [SEQ ID NO: 197], the “T cell recognition/activation” value in the experiment with T cell clone BDC-9.3 and in the experiment on T cell clone BDC-6.9 was “recognized” each time.

On to LQTLALWSRMD [SEQ ID NO: 199], for which the “T cell recognition/activation” value (in experiment [1]; with CD4 T cell clone BDC-2.5; in experiment [2]) was “activate” throughout.

As for “WE14-HIP: HIP spanning full-length Ins2 C-Peptide fragment ending in LQTLAL on the N-terminal side and the entire WE14 sequence on the C-terminal side (EVEDPQVAQLELGGGPGAGDLQTLALWSRMDQLAKELTAE)”, in the experiment with CD4 T cell clone BDC-2.5, the “IFN-gamma T cell response to peptides” value is recorded as “low nanomolar concentrations”.

With “WE14: naturally occurring peptide cleavage product of chromogranin A (ChgA) (WSRMDQLAKELTAE)”, the “IFN-gamma T cell response to peptides” value in the experiment on CD4 T cell clone BDC-2.5 is “weakly antigenic; also recorded: poorly antigenic; also recorded: high concentrations”.

In the case of “insulin 2 C-peptide fragment ending with the amino acid sequence SEQ ID NO: 192 DLQTLAL: insulin 2 C-peptide fragment ending with DLQTLAL (EVEDPQVAQLELGGGPGAGDLQTLAL)”, the “IFN-gamma T cell response to peptides” value in the experiment on CD4 T cell clone BDC-2.5 and with T cell clone BDC-9.3 was “None of the clones respond” throughout.

As to “insulin 2 C-peptide: full length mouse insulin 2 C-peptide (EVEDPQVAQLELGGGPGAGDLQTLALEVAQQ)”, the “IFN-gamma T cell response to peptides” value in the experiment with CD4 T cell clone BDC-2.5 is on record as “None of the clones respond”; with CD4 T cell clone BDC-2.5 (listed as Ins2 C-Peptide), “None of the clones respond”; in the experiment on CD4 T cell clone BDC-2.5 (listed as insulin C-peptide) it was “none of the WE14-reactive T cell clones recognize”; in the experiment with T cell clone BDC-9.3, “None of the clones respond”.
